In patent US20240343710A1, “HETEROCYCLIC COMPOUNDS AND METHODS OF USE THEREOF” (1cBio, Inc., priority 2023, published 2024):
Counter-ions that a name gives are not always drawn. Like-named read-outs stand apart in the source and are kept apart here.

Legend:
recombinant human PARP1 = recombinant human PARP1 (Homo sapiens, UniProt P09874); test: PARP1 fluorescence polarization binding assay; settings: GST-tagged PARP1 20 nM, PARP1-FL probe 3 nM
Procedure: In some embodiments, the biological assay is described in the Examples herein. In some embodiments, the biological assay measures PARP-1 binding by way of fluorescence polarization measurements. In some embodiments, binding of a test compound to recombinant human PARP-1 reduces the amount of binding of a fluorescent probe, and consequently reduces the detected level of fluorescence polarization. In some test compound stock solutions are prepared in a solvent, e.g., DMSO, and are serially diluted into a range of concentrations, e.g., 15 concentrations, 14 concentrations, 13 concentrations, 12 concentrations, 11 concentrations, 10 concentrations, 9 concentrations, 8 concentrations, 7 concentrations, 6 concentrations, or 5 concentrations, by a dilution factor, e.g., a 10-fold dilution factor, a 9-fold dilution factor, an 8-fold dilution factor, a 7-fold dilution factor, a 6-fold dilution factor, a 5-fold dilution factor, a 4-fold dilution factor, a 3-fold dilution factor, or a 2-fold dilution factor. In some embodiments, the serial dilutions, e.g., 100 nL of serial dilution, 90 nL of serial dilution, 80 nL of serial dilution, 70 nL of serial dilution, 60 nL of serial dilution, 50 nL of serial dilution, 30 nL of serial dilution, 20 nL of serial dilution, or 10 nL of serial dilution, are added to a multi-welled plate, e.g., a 1536-well plate, a 384-well plate, or a 96-well plate. In some embodiments, PARP-1, e.g., GST-tagged PARP-1, is diluted in assay buffer, e.g., 50 μL of assay buffer, 40 μL of assay buffer, e.g., 30 μL of assay buffer, 20 μL of assay buffer, 10 μL of assay buffer, or 5 μL of assay buffer, and is added to the plate. In some embodiments, the plate is centrifuged, e.g., at 1000 rpm for 1 min, and incubated, e.g., incubated for 30 minutes at room temperature (RT). In some embodiments, a fluorescent probe, e.g., 10 μL of 6 nM PARP1-FL (TOCRIS, Cat #6461), is diluted in an assay buffer and is added to the plate. In some embodiments, the final concentrations of PARP-1 and fluorescent probe are 20 nM and 3 nM, respectively, in a total volume of 20 μL. In some embodiments, the plate is centrifuged, e.g., at 1000 rpm for 1 minute, and the assay plate is incubated, e.g., for 4 h at RT. In some embodiments, the samples in each well are read using a plate reader, e.g., an Envision instrument using excitation=480 nm, and emission wavelength=FITC FP-P pol 535 nm & FITC FP-S pol 535 nm). In some embodiments, percent inhibition is calculated from mP values using Inhibition (%)=[1−(mPc−mPL)/(mPH−mPL)]×100%, where mPc, mPL, and mPH are the mP values of test compound, Low controls, and High controls, respectively. In some embodiments, binding IC50 values are calculated using XLFit (equation 201: y=A+((B−A)/(1+((x/C)^D))), where A=bottom, B=top, C=IC50, and D=slope) with a floating top and bottom for curves.
Compounds of the present disclosure were tested in a PARP1 fluorescence polarization binding assay at Pharmaron (Beijing, P.R. China). In this biochemical assay, binding of test compound to recombinant human PARP1 reduces the amount of binding of a fluorescent probe, and consequently reduces the detected level of fluorescence polarization. Test compound stock solutions were prepared in DMSO and then serially diluted into 10 concentrations by 3-fold dilution in a 384-well plate using a TECAN EVO200. Alternatively, a single concentration was prepared. 60 nL of each dilution was transferred to the plate using an Echo550 (Labcyte), and then 10 μL 40 nM GST-tagged PARP1 (BPS Bioscience, Cat #80501), diluted in assay buffer (50 mM Tris pH 8.0, 0.001% Triton X-100, 10 mM MgCl2, 150 mM NaCl), was added to the plate. After a centrifugation at 1000 rpm for 1 min, the assay plate was incubated for 30 min at RT. 10 μL 6 nM PARP1-FL (TOCRIS, Cat #6461), diluted using assay buffer, was then added to the plate. The final concentrations of PARP1 and PARP1-FL were 20 nM and 3 nM, respectively, in a total volume of 20 μL. […]

recombinant human PARP2 = recombinant human PARP2 (Homo sapiens, UniProt Q9UGN5); test: PARP2 fluorescence polarization binding assay; settings: read-out: PARP2 % inh at 10 μM
[1] = tested on: DLD-1 BRCA2(−/−) colorectal adenocarcinoma cells; test: Cell viability assay (Cell Titer-Glo, 7 days), DLD-1 BRCA2(−/−); type: cell-based; settings: Homo sapiens, 168 h, DLD-1 BRCA2(−/−) cells
From the text: (§1) In some embodiments, the biological assay measures the effects that compounds of the present disclosure may have on the viability of cells, e.g., the viability of cancer cells. In some embodiments, DLD-1 wild-type and DLD-1 BRCA2(−/−) colorectal adenocarcinoma cells, an isogenic pair of cell lines differing in the presence and absence, respectively, of both BRCA2 alleles, are used to measure the effect of the disclosed compounds on the viability of cancer cells. In some embodiments, the cells are harvested during the logarithmic growth period, counted, and seeded at a specified count in the wells of a 96- or 384-well cell culture plate. In some embodiments, after seeding, the cells are incubated, e.g., at 37° C., 5% CO2 overnight. In some embodiments, the cells are treated with compounds, e.g., with serially diluted test compounds at 8-11 concentrations within a desired concentration range, e.g., from 1 nM-10 μM, for the generation of dose-response curves. In some embodiments, the plate is further incubated, e.g., for another 3-7 days in a humidified incubator at 37° C. and 5% CO2. In some embodiments, cell viability is assessed by luminescence measurement after addition of Cell Titer-Glo reagent (Promega, Madison, Wis.) according to the manufacturer's instructions. In some embodiments, cell viability IC50 values are calculated using XLFit, equation 201: y=A+((B−A)/(1+((x/C)^D))), where A=bottom, B=top, C=IC50, and D=slope. In some embodiments, the effects of the test compounds on the viability of other cell lines such as MDA-MB-436, MDA-MB-231, SUM149PT, HCC1395, and UWB1.289 are determined in an analogous method.
(§2) Compounds of the present disclosure were tested for their effects on the viability of cancer cells. DLD-1 wild-type and DLD-1 BRCA2(−/−) colorectal adenocarcinoma cells, an isogenic pair of cell lines differing in the presence and absence, respectively, of both BRCA2 alleles, were used. The cells were harvested during the logarithmic growth period, counted, and seeded at 50 cells/well for DLD-1 wild-type and 200 cells/well for DLD-1 BRCA2(−/−) in a 384-well cell culture plate. After seeding, cells were incubated at 37° C., 5% CO2 overnight. Cells were treated with serially diluted test compounds at 10 concentrations (e.g., from 1.5 nM-30 μM) for generation of dose response curves, or at a single concentration. The plate was further incubated for another 7 days in a humidified incubator at 37° C. and 5% CO2. Cell viability was assessed by luminescence measurement after addition of Cell Titer-Glo reagent (Promega, Madison, Wis.) according to the manufacturer's instructions. Cell viability IC50 values were calculated using XLFit, equation 201. y=A+((B−A)/(1+((x/C)^D))), where A=bottom, B=top, C=IC50, and D=slope. IC50 values are shown in Table B and are presented in ranges, in which “+++”<300 nM, 300 nM≤“++”<3000 nM, and “+”≥3000 nM. Values for percent inhibition at 10 μM are also shown in Table B and are presented in ranges, in which “***”≥67%, 33%: “**”≤67%, and “*”<33%. Effects of the test compounds on the viability of other cell lines such as MDA-MB-436, MDA-MB-231, SUM149PT, HCC1395, and UWB1.289 are determined in an analogous method.

[2] = tested on: DLD-1 wild-type colorectal adenocarcinoma cells; test: Cell viability assay (Cell Titer-Glo, 7 days), DLD-1 wild-type; type: cell-based; settings: Homo sapiens, 168 h, DLD-1 wild-type cells, read-out: DLD-1 wild-type % inh at 10 μM
From the text: as §1, §2

[3] = percent inhibition at 10 μM, fluorescence polarization, GST-tagged PARP2 20 nM, PARP1-FL probe 3 nM

recombinant human PARP2, sequence (Q9UGN5 whole entry): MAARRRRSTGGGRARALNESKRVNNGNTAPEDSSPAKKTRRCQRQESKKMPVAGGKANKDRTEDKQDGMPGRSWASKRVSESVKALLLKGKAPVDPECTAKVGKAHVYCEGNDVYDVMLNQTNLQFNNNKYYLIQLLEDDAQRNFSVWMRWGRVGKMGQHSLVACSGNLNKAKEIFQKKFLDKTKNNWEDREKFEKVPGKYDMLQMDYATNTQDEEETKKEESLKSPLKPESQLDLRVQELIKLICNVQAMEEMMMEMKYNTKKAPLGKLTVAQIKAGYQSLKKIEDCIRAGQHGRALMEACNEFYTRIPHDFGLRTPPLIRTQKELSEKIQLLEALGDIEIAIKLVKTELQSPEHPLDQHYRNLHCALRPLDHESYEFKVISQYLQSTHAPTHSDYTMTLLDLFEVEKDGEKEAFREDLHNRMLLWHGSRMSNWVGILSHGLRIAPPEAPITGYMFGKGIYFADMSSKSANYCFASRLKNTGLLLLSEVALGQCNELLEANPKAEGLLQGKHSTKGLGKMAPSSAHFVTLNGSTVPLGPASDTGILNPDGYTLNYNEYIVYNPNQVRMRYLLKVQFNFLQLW
recombinant human PARP1, sequence (P09874 whole entry): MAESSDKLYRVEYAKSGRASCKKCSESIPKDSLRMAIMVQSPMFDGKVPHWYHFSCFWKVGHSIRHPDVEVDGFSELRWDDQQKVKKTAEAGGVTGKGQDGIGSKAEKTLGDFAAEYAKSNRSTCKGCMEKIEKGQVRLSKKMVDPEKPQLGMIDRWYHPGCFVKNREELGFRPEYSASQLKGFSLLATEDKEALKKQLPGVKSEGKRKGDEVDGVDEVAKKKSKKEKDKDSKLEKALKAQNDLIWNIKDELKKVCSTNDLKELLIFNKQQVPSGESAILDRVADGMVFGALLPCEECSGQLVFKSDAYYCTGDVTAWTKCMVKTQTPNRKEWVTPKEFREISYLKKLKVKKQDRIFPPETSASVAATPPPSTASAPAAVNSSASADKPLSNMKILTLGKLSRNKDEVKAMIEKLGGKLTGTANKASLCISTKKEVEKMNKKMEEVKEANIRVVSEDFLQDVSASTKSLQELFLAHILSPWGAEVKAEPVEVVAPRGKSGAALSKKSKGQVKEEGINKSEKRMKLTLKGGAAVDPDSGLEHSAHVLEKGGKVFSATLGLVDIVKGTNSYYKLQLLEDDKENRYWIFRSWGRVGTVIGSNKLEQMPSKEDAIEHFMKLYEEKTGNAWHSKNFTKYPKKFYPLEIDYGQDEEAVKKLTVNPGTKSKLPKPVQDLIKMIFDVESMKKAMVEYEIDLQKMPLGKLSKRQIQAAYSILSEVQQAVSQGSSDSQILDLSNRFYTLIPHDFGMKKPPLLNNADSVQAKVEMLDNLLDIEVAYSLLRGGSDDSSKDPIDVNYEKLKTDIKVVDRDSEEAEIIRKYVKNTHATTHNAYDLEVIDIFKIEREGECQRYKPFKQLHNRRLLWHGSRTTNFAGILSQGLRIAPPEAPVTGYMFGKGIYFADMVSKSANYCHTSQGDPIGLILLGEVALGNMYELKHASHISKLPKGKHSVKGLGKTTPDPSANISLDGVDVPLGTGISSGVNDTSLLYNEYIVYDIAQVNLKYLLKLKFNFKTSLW

Row | SMILES | IC50 (recombinant human PARP1) [nM] | inhibition at 10 µM (recombinant human PARP2; [3]) [%] | IC50 [1] [nM] | inhibition at 10 µM [2] [%] | inhibition at 10 µM (recombinant human PARP2) [%]
1 | CCNC(=O)Nc1cc(CN2CCN(c3ccc(C(=O)NC#N)nc3C)CC2)ccn1 [Compound 3, N-cyano-5-(4-((2-(3-ethylureido)pyridin-4-yl)methyl)piperazin-1-yl)-6-methylpicolinamide dihydrochloride] | ≥ 3000 |  |  |  | 
2 | CCNC(=O)Nc1cc(CN2CCN(c3ccc(C(=O)CC)nc3C)CC2)ccn1 [Compound 7, 1-ethyl-3-(4-((4-(2-methyl-6-propionylpyridin-3-yl)piperazin-1-yl)methyl)pyridin-2-yl)urea] | < 100 | < 33 | 300 to 3000 | 33 to 67 | 
3 | CCNC(=O)Nc1cc(CN2CCN(c3ccc(C(=O)NC)nc3F)CC2)ccn1 [Compound 9, 5-(4-((2-(3-ethylureido)pyridin-4-yl)methyl)piperazin-1-yl)-6-fluoro-N-methylpicolinamide] | < 100 | < 33 | < 300 | < 33 | 
4 | CCNC(=O)Nc1cc(CN2CCN(c3ccc(C(=O)NC)nc3C)CC2)ccn1 [Compound 13, 5-(4-((2-(3-ethylureido)pyridin-4-yl)methyl)piperazin-1-yl)-N,6-dimethylpicolinamide formate] | < 100 |  | < 300 | < 33 | < 33
5 | CCNC(=O)Nc1cc(CN2CCN(c3ccc(C(=O)NC)nc3C(F)(F)F)CC2)ccn1 [Compound 21, 5-(4-((2-(3-ethylureido)pyridin-4-yl)methyl)piperazin-1-yl)-N-methyl-6-(trifluoromethyl)picolinamide trifluoroacetate] | < 100 |  | < 300 | < 33 | < 33
6 | CCNC(=O)Nc1cc(CN2CCN(c3ccc(C(=O)NC)nc3C#N)CC2)ccn1 [Compound 22, 6-cyano-5-(4-((2-(3-ethylureido)pyridin-4-yl)methyl)piperazin-1-yl)-N-methylpicolinamide] | < 100 | 33 to 67 | < 300 | < 33 | 
7 | CCNC(=O)Nc1cc(CN2CCN(c3ccc(-n4cccn4)nc3C)CC2)ccn1 [Compound 24, 1-ethyl-3-(4-((4-(2-methyl-6-(1H-pyrazol-1-yl)pyridin-3-yl)piperazin-1-yl)methyl)pyridin-2-yl)urea] | < 100 | < 33 | < 300 | < 33 | 
8 | CCNC(=O)Nc1cc(CN2CCN(c3ccc(C(=O)NC)nc3C)CC2=O)ccn1 [Compound 29, 5-(4-((2-(3-ethylureido)pyridin-4-yl)methyl)-3-oxopiperazin-1-yl)-N,6-dimethylpicolinamide] | 100 to 3000 | < 33 | ≥ 3000 | < 33 | 

More lines, main results first:

Row | IC50 (recombinant human PARP1) [nM] | inhibition at 10 µM (recombinant human PARP2; [3]) [%] | IC50 [1] [nM] | SMILES | inhibition at 10 µM [2] [%] | inhibition at 10 µM (recombinant human PARP2) [%]
9 | < 100 | < 33 | 300 to 3000 | CCNC(=O)Nc1cc(CN2CCN(c3ccc(C(=O)NC)c(=O)n3C)CC2)ccn1 [Compound 30, 6-(4-((2-(3-ethylureido)pyridin-4-yl)methyl)piperazin-1-yl)-N,1-dimethyl-2-oxo-1,2-dihydropyridine-3-carboxamide] | < 33 | 
10 | ≥ 3000 | < 33 |  | CCNS(=O)(=O)Nc1cc(CN2CCN(c3ccc(C(=O)NC)nc3C)CC2)ccn1 [Compound 105, 5-(4-((2-((N-ethylsulfamoyl)amino)pyridin-4-yl)methyl)piperazin-1-yl)-N,6-dimethylpicolinamide] |  | 
11 | < 100 |  |  | CCNC(=O)Nc1cc(CN2CCN(c3ccc(C(=O)NC)nc3C)CC2)no1 [Compound 279, 5-(4-((5-(3-ethylureido)isoxazol-3-yl)methyl)piperazin-1-yl)-N,6-dimethylpicolinamide] |  | 
12 | ≥ 3000 |  |  | CNC(=O)C(=O)Nc1cc(CN2CCN(c3ccc(C(=O)NC)nc3C)CC2)ns1 [Compound 280, N1-methyl-N2-(3-((4-(2-methyl-6-(methylcarbamoyl)pyridin-3-yl)piperazin-1-yl)methyl)isothiazol-5-yl) oxalamide formate] |  | 
13 | < 100 |  |  | CCNC(=O)Nc1cc(CN2CCN(c3ccc(C(=O)NC)nc3C)CC2)n(C)n1 [Compound 281, 5-(4-((3-(3-ethylureido)-1-methyl-1H-pyrazol-5-yl)methyl)piperazin-1-yl)-N,6-dimethylpicolinamide trihydrochloride] |  | 
